Reference: patent US20250235432A1, “METHODS OF TREATING CANCERS” (Foghorn Therapeutics Inc., priority 2018, published 2025)

What was measured:
Format in all cases: cell-based
[1] = tested on: parental MP41 and PKCi-resistant MP41 uveal melanoma cells; experiment: 7-day growth inhibition assay, parental and PKC inhibitor-resistant cells
Description: Procedure: Uveal melanoma cell lines (92-1, MP41, MP38, MP46), prostate cancer cell lines (LNCAP), lung cancer cell lines (NClH1299), and immortalized embryonic kidney lines (HEK293T) were plated into 96 well plates with growth media (see Table 1). […] Cells were incubated at 37° C. for 3 days. After 3 days of treatment, the media was removed from the cells, and 30 microliters of TrypLE (Gibco) was added to cells for 10 minutes. Cells were detached from the plates and resuspended with the addition of 170 microliters of growth media. Cells from two DMSO-treated control wells were counted, and the initial number of cells plated at the start of the experiment, were re-plated into fresh-compound containing plates for an additional four days at 37° C. At day 7, cells were harvested as described above.
On day 3 and day 7, relative cell growth was measured by the addition of Cell-titer glo (Promega), and luminescence was measured on an Envision plate reader (Perkin Elmer).
Procedure: MP41 uveal melanoma cells were made resistant to the PKC inhibitor (LXS196; MedChemExpress), by long-term culture in growth media (see Table 1) containing increasing concentrations of the compound, up to 1 micromolar. After 3 months, sensitivity of the parental MP41 cells and the PKC inhibitor (PKCi)-resistant cells to the PKC inhibitor (LXS196) or the BRG1/BRM ATPase inhibitor (compound 18) was tested in a 7-day growth inhibition assay as described above in Example 2.

[2] = tested on: uveal melanoma cell lines 92-1 or MP41; experiment: 3-day growth inhibition of uveal melanoma cell lines, comparison to clinical PKC and MEK inhibitors; details: for onset of growth inhibition compared to the clinical PKC and MEK inhibitors: 92-1 or MP41; for growth inhibition of uveal melanoma cells compared to the clinical PKC and MEK inhibitors (LXS196, Selumetinib): 92-1 or MP41, 3 days, 0 to 10 micromolar
Description: Procedure: Uveal melanoma cell lines, 92-1 or MP41, were plated in 96 well plates in the presence of growth media (see Table 1). […] Cells were incubated at 37° C. for 3 days. After 3 days of treatment, cell growth was measured with Cell-titer glow (Promega), and luminescence was read on an Envision plate reader (Perkin Elmer).
Procedure: Uveal melanoma cell lines, 92-1 or MP41, were plated in 96 well plates in the presence of growth media (see Table 1). BAF ATPase inhibitor (compound 18), PKC inhibitor (LXS196; MedChemExpress), and MEK inhibitor (Selumetinib; Selleck Chemicals) were dissolved in DMSO and added to the cells in a concentration gradient from 0 to 10 micromolar at the time of plating. Cells were incubated at 37° C. for 3 days. After three days of treatment, cell growth was measured with Cell-titer glow (Promega), and luminescence was read on an Envision plate reader (Perkin Elmer).

[3] = tested on: uveal melanoma cell lines (92-1, MP41, MP38, MP46); experiment: 3-day growth inhibition of uveal melanoma and non-small cell lung cancer cell lines; details: 3 days, 0 to 10 micromolar, FIG. 5
Description: Procedure: Uveal melanoma cell lines (92-1, MP41, MP38, MP46) and non-small cell lung cancer cells (NCl-H1299) were plated into 96 well plates with growth media (see Table 1). BRG1/BRM ATPase inhibitor, compound 18, was dissolved in DMSO and added to the cells in a concentration gradient from 0 to 10 micromolar at the time of plating. Cells were incubated at 37° C. for 3 days. After three days of treatment, cell growth was measured with Cell-titer glow (Promega), and luminescence was read on an Envision plate reader (Perkin Elmer).

Compound	tolerance of PKCi-resistant cells relative to the parental MP41 cell line ([1]; 7-day assay, FIG. 7A)	onset of growth inhibition compared to the clinical PKC and MEK inhibitors [2]	growth inhibition of uveal melanoma cells compared to the clinical PKC and MEK inhibitors (LXS196, Selumetinib) [2]	growth inhibition in the uveal melanoma cell lines [3]	sensitivity of PKCi-resistant cells relative to parental MP41 cells ([1]; 7-day assay, FIG. 7B)	growth inhibition of both the PKCi-resistant and parental cell lines ([1]; MP41, 7-day assay, FIG. 7B)
CC1(N)CCN(c2cccnc2NC(=O)c2nc(-c3ncccc3C(F)(F)F)cnc2N)CC1 [LXS196, reference compound]	could tolerate growth at higher concentrations					
CSCC[C@H](NC(=O)c1ccc(N)cc1)C(=O)Nc1nc(-c2cccc(-c3ccncc3)c2)cs1 [compound 17, 4-amino-N-[(1S)-3-methylsulfanyl-1-[[4-[3-(4-pyridyl)phenyl]thiazol-2-yl]carbamoyl]propyl]benzamide]		faster onset of inhibition	comparable growth inhibition			
CSCC[C@H](NC(=O)c1ccn(S(C)(=O)=O)c1)C(=O)Nc1nc(-c2cccc(-c3ccncc3)c2)cs1 [compound 18, (S)-1-(methylsulfonyl)-N-(4-(methylthio)-1-oxo-1-((4-(3-(pyridin-4-yl)phenyl)thiazol-2-yl)amino)butan-2-yl)-1H-pyrrole-3-carboxamide]		faster onset of growth inhibition	more potent effects on growth inhibition	potent growth inhibition	more sensitive	strong growth inhibition
